Experimental data: US20060135906A1, “Iontophoretic device and method for administering immune response-enhancing agents and compositions” (priority 2004, published 2006)

Tested on: 57BL/6 mice
Assay: Antibody titers (IgG1, IgG2) in mice given Mtb72F vaccine plus MPL adjuvant
Details: for antibody titer of IgG1 / antibody titer of IgG2: Mtb72F 10 μg injected, compared with no MPL administered
[1] = day 43, MPL administered iontophoretically (transcutaneous)
[2] = day 43, MPL by intracutaneous injection (MPL-AF or MPL-SE, 20 μg)

monophosphoryl lipid A [MPL]
immune response-enhancing effects (MPL administered iontophoretically, compared with intracutaneous injection): significant immune response-enhancing effects equivalent to those obtained by intracutaneous injection | antibody titer results, iontophoretic delivery compared with intracutaneous injection (day 43, IgG1 and IgG2): nearly identical | antibody titer of IgG1 [1]: significantly higher | antibody titer of IgG2 [1]: significantly higher | antibody titer of IgG1 [2]: significantly higher | antibody titer of IgG2 [2]: significantly higher
